Each molecule was assayed against T1, GLP1R (Homo sapiens, UniProt P43220) (assay: GLP1R cAMP assay (HTRF), HEK293/GLP-1R/CRE/Luc, Clone 4). Conditions: not given.
Target sequence in this assay (P43220 24-463): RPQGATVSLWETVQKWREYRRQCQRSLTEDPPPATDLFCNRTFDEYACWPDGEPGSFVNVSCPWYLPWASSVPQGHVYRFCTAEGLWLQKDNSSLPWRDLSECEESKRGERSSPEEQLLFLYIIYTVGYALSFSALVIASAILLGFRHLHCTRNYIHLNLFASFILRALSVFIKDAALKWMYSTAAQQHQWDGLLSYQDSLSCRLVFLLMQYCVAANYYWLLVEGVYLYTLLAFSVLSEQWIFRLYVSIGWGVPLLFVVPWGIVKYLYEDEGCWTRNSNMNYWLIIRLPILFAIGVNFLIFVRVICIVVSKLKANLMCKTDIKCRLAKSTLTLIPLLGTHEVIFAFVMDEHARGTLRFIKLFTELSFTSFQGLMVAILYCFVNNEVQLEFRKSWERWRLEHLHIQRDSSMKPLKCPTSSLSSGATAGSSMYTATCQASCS
`O=C(O)c1ccc2nc(Cc3cc(F)c(-c4cccc(OCc5ccc(Cl)cc5F)n4)cc3F)n(C[C@@H]3CCO3)c2c1` [Compound 257, (S)-2-(4-(6-((4-chloro-2-fluorobenzyl)oxy)pyridin-2-yl)-2,5-difluorobenzyl)-1-(oxetan-2-ylmethyl)-1H-benzo[d]imidazole-6-carboxylic acid] was tested, and the EC50 was < 15 nM.
In the case of `O=C(O)c1ccc2nc(Cc3ccc(-c4cccc(OCc5ccc(Cl)cc5F)n4)c(F)c3)n(C[C@@H]3CCO3)c2n1` [Compound 102, (S)-2-(4-(6-((4-chloro-2-fluorobenzyl)oxy)pyridin-2-yl)-3-fluorobenzyl)-3-(oxetan-2-ylmethyl)-3H-imidazo[4,5-b]pyridine-5-carboxylic acid], the EC50 is reported as < 15 nM.
`N#Cc1ccc(COc2ncccc2C2=CCN(Cc3nc4ccc(C(=O)O)cc4n3C[C@@H]3CCO3)CC2)c(F)c1` [Compound 333, (S)-2-((4-(2-(4-cyano-2-fluorobenzyloxy)pyridin-3-yl)-5,6-dihydropyridin-1(2H)-yl)methyl)-1-(oxetan-2-ylmethyl)-1H-benzo[d]imidazole-6-carboxylic acid] gave an EC50 of 15 to 150 nM.
For `CC1(c2ccc(C#N)cc2F)Oc2cccc(C3=CCN(Cc4nc5ccc(C(=O)O)cc5n4C[C@@H]4CCO4)CC3)c2O1` (stereo partly drawn) [Compound 334, 2-((4-(2-(4-cyano-2-fluorophenyl)-2-methylbenzo[d][1,3]dioxol-4-yl)-3,6-dihydropyridin-1(2H)-yl)methyl)-1-(((S)-oxetan-2-yl)methyl)-1H-benzo[d]imidazole-6-carboxylic acid], the EC50 was < 15 nM.
For `O=C(O)c1ccc2nc(Cc3ccc(-c4ccc(F)c(OCc5ccc(Cl)cc5F)n4)c(F)c3)n(C[C@@H]3CCO3)c2n1` [Compound 305, (S)-2-(4-(6-((4-chloro-2-fluorobenzyl)oxy)-5-fluoropyridin-2-yl)-3-fluorobenzyl)-3-(oxetan-2-ylmethyl)-3H-imidazo[4,5-b]pyridine-5-carboxylic acid], the EC50 was < 15 nM.
`O=C(O)c1ccc2nc(Cc3ccc(-c4cncc(OCc5ccc(Cl)cc5F)n4)cc3F)n(C[C@@H]3CCO3)c2c1` [Compound 265, (S)-2-(4-(6-((4-chloro-2-fluorobenzyl)oxy)pyrazin-2-yl)-2-fluorobenzyl)-1-(oxetan-2-ylmethyl)-1H-benzo[d]imidazole-6-carboxylic acid] was tested, and the EC50 was < 15 nM.
`N#Cc1ccc(COc2cccc(N3CCC(=Cc4nc5ccc(C(=O)O)cc5n4C[C@@H]4CCO4)CC3)n2)c(F)c1` [Compound 317, (S)-2-((1-(6-((4-cyano-2-fluorobenzyl)oxy)pyridin-2-yl)piperidin-4-ylidene)methyl)-1-(oxetan-2-ylmethyl)-1H-benzo[d]imidazole-6-carboxylic acid] was tested, and the EC50 was < 15 nM.
For `N#Cc1ccc(COc2nc(-c3cc(F)c(Cc4nc5ccc(C(=O)O)c(F)c5n4C[C@@H]4CCO4)cc3F)ncc2F)nc1` [Compound 313, (S)-2-(4-(4-((5-cyanopyridin-2-yl)methoxy)-5-fluoropyrimidin-2-yl)-2,5-difluorobenzyl)-7-fluoro-1-(oxetan-2-ylmethyl)-1H-benzo[d]imidazole-6-carboxylic acid], the EC50 was < 15 nM.
`O=C(O)c1ccc2nc(Cc3ccc(-c4nc(OCc5ccc(Cl)cc5F)ccc4F)cc3F)n(C[C@@H]3CCO3)c2c1` [Compound 92, (S)-2-(4-(6-((4-chloro-2-fluorobenzyl)oxy)-3-fluoropyridin-2-yl)-2-fluorobenzyl)-1-(oxetan-2-ylmethyl)-1H-benzo[d]imidazole-6-carboxylic acid] was tested, and the EC50 was < 15 nM.
`N#Cc1ccc(COc2nc(-c3ccn(Cc4nc5ccc(C(=O)O)nc5n4C[C@@H]4CCO4)c(=O)c3)ncc2F)c(F)c1` [Compound 325, (S)-2-((4-(4-((4-cyano-2-fluorobenzyl)oxy)-5-fluoropyrimidin-2-yl)-2-oxopyridin-1(2H)-yl)methyl)-3-(oxetan-2-ylmethyl)-3H-imidazo[4,5-b]pyridine-5-carboxylic acid] was tested, and the EC50 was 15 to 150 nM.
With `O=C(O)c1ccc2nc(Cc3ccc(-c4nc(OCc5ccc(Cl)cc5F)c(F)cc4F)cc3F)n(C[C@@H]3CCO3)c2n1` [Compound 299, (S)-2-(4-(6-(4-chloro-2-fluorobenzyloxy)-3,5-difluoropyridin-2-yl)-2-fluorobenzyl)-3-(oxetan-2-ylmethyl)-3H-imidazo [4,5-b]pyridine-S-carboxylic acid] the EC50 was < 15 nM.
In the case of `O=C(O)c1ccc2nc(Cc3ccc(-c4nccc(OCc5ccc(Cl)cc5F)n4)c(F)c3)n(C[C@@H]3CCO3)c2c1` [Compound 259, (S)-2-(4-(4-((4-chloro-2-fluorobenzyl)oxy)pyrimidin-2-yl)-3-fluorobenzyl)-1-(oxetan-2-ylmethyl)-1H-benzo[d]imidazole-6-carboxylic acid], the EC50 is reported as < 15 nM.
For `O=C(O)c1ccc2nc(CN3CC=C(c4csc(OCc5ccc(Cl)cn5)n4)CC3)n(C[C@@H]3CCO3)c2c1` [Compound 250, (S)-2-((4-(2-((5-chloropyridin-2-yl)methoxy)thiazol-4-yl)-3,6-dihydropyridin-1(2H)-yl)methyl)-1-(oxetan-2-ylmethyl)-1H-benzo[d]imidazole-6-carboxylic acid], the EC50 was 15 to 150 nM.
In the case of `O=C(O)c1ccc2nc(Cc3ccc(-c4cccc(OCc5ccc(F)cc5F)n4)cc3F)n(C[C@@H]3CCO3)c2c1` [Compound 274, (S)-2-(4-(6-((2,4-difluorobenzyl)oxy)pyridin-2-yl)-2-fluorobenzyl)-1-(oxetan-2-ylmethyl)-1H-benzo[d]imidazole-6-carboxylic acid], the EC50 is reported as < 15 nM.
For `N#Cc1ccc(COc2cccc(-c3ccc(Cc4nc5ccc(C(=O)O)nc5n4C[C@@H]4CCO4)c(F)c3)n2)c(F)c1` [Compound 282, (S)-2-(4-(6-((4-cyano-2-fluorobenzyl)oxy)pyridin-2-yl)-2-fluorobenzyl)-3-(oxetan-2-ylmethyl)-3H-imidazo[4,5-b]pyridine-5-carboxylic acid], the EC50 was < 15 nM.
Molecule `O=C(O)c1ccc2nc(C=C3CCN(c4cccc(OCc5ccc(F)cc5F)n4)CC3)n(C[C@@H]3CCO3)c2n1` [Compound 315, (S)-2-((1-(6-(2,4-difluorobenzyloxy)pyridin-2-yl)piperidin-4-ylidene)methyl)-3-(oxetan-2-ylmethyl)-3H-imidazo[4,5-b]pyridine-5-carboxylic acid] has an EC50 of 150 to 1000 nM.
`O=C(O)c1ccc2nc(Cc3ccc(-c4cccc(OCc5ccc(-n6ccnc6)cc5)n4)cc3F)n(C[C@@H]3CCO3)c2n1` [Compound 304, (S)-2-(4-(6-((4-(1H-imidazol-1-yl)benzyl)oxy)pyridin-2-yl)-2-fluorobenzyl)-3-(oxetan-2-ylmethyl)-3H-imidazo[4,5-b]pyridine-5-carboxylic acid] was tested, and the EC50 was < 15 nM.
In the case of `O=C(O)c1ccc2nc(CN3CC=C(c4csc(OCc5ccc(Br)cn5)n4)CC3)n(C[C@@H]3CCO3)c2c1` [Compound 253, (S)-2-((4-(2-((5-bromopyridin-2-yl)methoxy)thiazol-4-yl)-3,6-dihydropyridin-1(2H)-yl)methyl)-1-(oxetan-2-ylmethyl)-1H-benzo[d]imidazole-6-carboxylic acid], the EC50 is reported as 15 to 150 nM.
In the case of `O=C(O)c1ccc2nc(Cc3ccc(-c4cccc(OCc5ccc(F)cc5F)n4)cc3F)n(C[C@@H]3CCO3)c2n1` [Compound 286, (S)-2-(4-(6-((2,4-difluorobenzyl)oxy)pyridin-2-yl)-2-fluorobenzyl)-3-(oxetan-2-ylmethyl)-3H-imidazo[4,5-b]pyridine-5-carboxylic acid], the EC50 is reported as < 15 nM.
Molecule `N#Cc1ccc(COc2cccc(N3CCC(=Cc4nc5ccc(C(=O)O)nc5n4C[C@@H]4CCO4)CC3)n2)nc1` [Compound 316, (S)-2-((1-(6-((5-cyanopyridin-2-yl)methoxy)pyridin-2-yl)piperidin-4-ylidene)methyl)-3-(oxetan-2-ylmethyl)-3H-imidazo[4,5-b]pyridine-5-carboxylic acid] has an EC50 of 15 to 150 nM.
With `N#Cc1ccc(COc2cccc(N3CCC(=Cc4nc5ccc(C(=O)O)c(F)c5n4C[C@@H]4CCO4)CC3)n2)nc1` [Compound 318, (S)-2-((1-(6-((5-cyanopyridin-2-yl)methoxy)pyridin-2-yl)piperidin-4-ylidene)methyl)-7-fluoro-1-(oxetan-2-ylmethyl)-1H-benzo[d]imidazole-6-carboxylic acid] the EC50 was 15 to 150 nM.
In the case of `O=C(O)c1ccc2nc(Cc3ccc(-c4ccc(F)c(OCc5ccc(Cl)cc5F)n4)cc3F)n(C[C@@H]3CCO3)c2n1` [Compound 283, (S)-2-(4-(6-(4-chloro-2-fluorobenzyloxy)-5-fluoropyridin-2-yl)-2-fluorobenzyl)-3-(oxetan-2-ylmethyl)-3H-imidazo[4,5-b]pyridine-5-carboxylic acid], the EC50 is reported as < 15 nM.
For `O=C(O)c1ccc2nc(CN3CC=C(c4csc(OCc5ccc(F)cc5F)n4)CC3)n(C[C@@H]3CCO3)c2c1` [Compound 252, (S)-2-((4-(2-((2,4-difluorobenzyl)oxy)thiazol-4-yl)-3,6-dihydropyridin-1(2H)-yl)methyl)-1-(oxetan-2-ylmethyl)-1H-benzo[d]imidazole-6-carboxylic acid], the EC50 was 15 to 150 nM.
In the case of `O=C(O)c1ccc2nc(Cc3ccc(-c4cccc(OCc5ccc(Cl)cc5F)n4)cc3Cl)n(C[C@@H]3CCO3)c2c1` [Compound 258, (S)-2-(2-chloro-4-(6-((4-chloro-2-fluorobenzyl)oxy)pyridin-2-yl)benzyl)-1-(oxetan-2-ylmethyl)-1H-benzo[d]imidazole-6-carboxylic acid], the EC50 is reported as < 15 nM.
`O=C(O)c1ccc2nc(CC3CCC(c4cccc(OCc5ccc(Cl)cc5F)n4)CC3)n(C[C@@H]3CCO3)c2c1` (stereo partly drawn) [Compound 319, (S)-2-((4-(6-((4-chloro-2-fluorobenzyl)oxy)pyridin-2-yl)cyclohexyl)methyl)-1-(oxetan-2-ylmethyl)-1H-benzo[d]imidazole-6-carboxylic acid] was tested, and the EC50 was 15 to 150 nM.
In the case of `Cc1cc(-c2cccc(OCc3ccc(Cl)cc3F)n2)ccc1Cc1nc2ccc(C(=O)O)cc2n1C[C@@H]1CCO1` [Compound 295, (S)-2-(4-(6-((4-chloro-2-fluorobenzyl)oxy)pyridin-2-yl)-2-methylbenzyl)-1-(oxetan-2-ylmethyl)-1H-benzo[d]imidazole-6-carboxylic acid], the EC50 is reported as < 15 nM.

Each molecule was assayed against T1, GLP1R (assay: not given). Conditions: CHO-K1, […], read-out: β-arrestin recruitment Bmax (%).
Set-up: Emax: dose or concentration left out as unconfirmed
Target sequence in this assay (P43220 24-463): as above
Target sequence in this assay (P32121 whole entry partner): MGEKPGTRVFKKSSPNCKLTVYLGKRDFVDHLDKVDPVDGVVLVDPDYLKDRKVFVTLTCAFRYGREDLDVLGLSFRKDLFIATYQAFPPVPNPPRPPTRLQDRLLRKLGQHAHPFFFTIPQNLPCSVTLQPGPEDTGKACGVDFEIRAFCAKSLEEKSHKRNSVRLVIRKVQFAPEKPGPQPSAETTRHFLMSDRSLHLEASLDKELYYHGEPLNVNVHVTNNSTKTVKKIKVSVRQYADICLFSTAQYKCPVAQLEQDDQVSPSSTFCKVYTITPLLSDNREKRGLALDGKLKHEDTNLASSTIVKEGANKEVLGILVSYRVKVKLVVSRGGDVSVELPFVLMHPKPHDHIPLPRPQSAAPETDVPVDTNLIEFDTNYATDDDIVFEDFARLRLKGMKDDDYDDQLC
`O=C(O)c1ccc2nc(Cc3cc(F)c(-c4cccc(OCc5ccc(Cl)cc5F)n4)cc3F)n(C[C@@H]3CCO3)c2c1` [Compound 257, (S)-2-(4-(6-((4-chloro-2-fluorobenzyl)oxy)pyridin-2-yl)-2,5-difluorobenzyl)-1-(oxetan-2-ylmethyl)-1H-benzo[d]imidazole-6-carboxylic acid] gave an Emax of 31.4%.
`O=C(O)c1ccc2nc(Cc3ccc(-c4cccc(OCc5ccc(Cl)cc5F)n4)c(F)c3)n(C[C@@H]3CCO3)c2n1` [Compound 102, (S)-2-(4-(6-((4-chloro-2-fluorobenzyl)oxy)pyridin-2-yl)-3-fluorobenzyl)-3-(oxetan-2-ylmethyl)-3H-imidazo[4,5-b]pyridine-5-carboxylic acid] gave an Emax of 28.3%.
Molecule `N#Cc1ccc(COc2ncccc2C2=CCN(Cc3nc4ccc(C(=O)O)cc4n3C[C@@H]3CCO3)CC2)c(F)c1` [Compound 333, (S)-2-((4-(2-(4-cyano-2-fluorobenzyloxy)pyridin-3-yl)-5,6-dihydropyridin-1(2H)-yl)methyl)-1-(oxetan-2-ylmethyl)-1H-benzo[d]imidazole-6-carboxylic acid] has an Emax of 9.75%.
With `CC1(c2ccc(C#N)cc2F)Oc2cccc(C3=CCN(Cc4nc5ccc(C(=O)O)cc5n4C[C@@H]4CCO4)CC3)c2O1` (stereo partly drawn) [Compound 334, 2-((4-(2-(4-cyano-2-fluorophenyl)-2-methylbenzo[d][1,3]dioxol-4-yl)-3,6-dihydropyridin-1(2H)-yl)methyl)-1-(((S)-oxetan-2-yl)methyl)-1H-benzo[d]imidazole-6-carboxylic acid] the Emax was 26.6%.
Molecule `O=C(O)c1ccc2nc(Cc3ccc(-c4ccc(F)c(OCc5ccc(Cl)cc5F)n4)c(F)c3)n(C[C@@H]3CCO3)c2n1` [Compound 305, (S)-2-(4-(6-((4-chloro-2-fluorobenzyl)oxy)-5-fluoropyridin-2-yl)-3-fluorobenzyl)-3-(oxetan-2-ylmethyl)-3H-imidazo[4,5-b]pyridine-5-carboxylic acid] has an Emax of 31.8%.
